The text below walks through data of US20060199770A1, “Functionalized carbon nanotubes, a process for preparing the same and their use in medicinal chemistry” (priority 2003, published 2006).

In one experiment the test system is BALB/c mice. The conditions noted are these: mouse, in vivo; cited from earlier work.
Experiment [1] deals with polyclonal mouse anti-FMDV peptide serum. It counts as binding.
In the next experiment the test system is mAb 21×27. Format: binding, mice.

Where no end group is shown, it is not given here.

Take “Ac-GSGVRGDFGSLAPRVARQL [FMDV 141-159 peptide]”: the “immunogenicity when injected alone with an adjuvant” value with BALB/c mice is listed as “not immunogenic”. For the substance “Ac-CGSGVRGDFGSLAPRVARQL [free FMDV peptide]”, the “recognition by polyclonal antibodies (ELISA, FIG. 5A)” value in experiment [1] is recorded as “recognized equally well”. In the experiment on mAb 21×27, the “recognition by monoclonal antibodies (ELISA, FIG. 5B)” value is recorded as “recognized equally well”.
